From patent US20090069441A1, “Motuporamine Mimic Agents” (priority 2006, published 2009)
Like-named read-outs stand apart in the source and are kept apart here.

Columns and labels:
[1] = test system: Drosophila imaginal leg discs; assay: Imaginal disc eversion assay; type: cell-based, Drosophila melanogaster; conditions: Drosophila melanogaster, 15 hr incubation in Robb's medium
Description: DihydroMotuporamine C, 4a, was used to develop an imaginal disc assay in Drosophila flies. The imaginal leg discs were collected by microscopic dissection from maggots. […] Inhibition was measured as failure of the disc to fully develop into a fly leg after 15 hr of incubation in Robb's growth medium. This presumably occurs by overactivation of Rho, an important signaling pathway in development. Hyper-stimulation of this pathway is sufficient to block development of the fly leg.
Fly Stocks: 20 female and 5 male wild type Oregon variant of Drosophila melanogaster interbred in blue food medium for 24 hours then flies are removed. Third instar wall-crawling larvae collected then dissected on the sixth day. Flies kept in 25° C. incubation chamber.
Blue Food Preparation: Standard corn meal medium heated then mixed completely with aqueous 1% Bromophenol Blue. The food medium is cooled for one day or more before use.
Dissection Medium: Ringer's Buffer with 10 uL 0.1% BSA. Ringer's Medium consists of 130 mM NaCl, 5 mM KCl, 1.5 mM CaCl2-2H2O, Stored at room temperature (23° C.), BSA added before dissection.
Cultivation Medium: Minimal Robb's Medium with 10 uL 0.1% BSA. Minimal Robb's Medium consists of 40 mM KCl, 0.4 mM KH2PO4, 40 mM NaCl, 0.4 mM NaH2PO4.7H2O, 1.2 mM MgSO4.7H2O, 1.2 mM MgCl2-6H2O, 1 mM CaCl2-2H2O, 10 mM Glucose, 0.2 mM L-asparagine, 4.0 mM L-glutamine, 0.16 mM Glycine, 0.64 mM L-leucine, 0.32 mM L-proline, 0.16 mM R-Serine, 0.64 mM L-valine. Stored at −25° C. One day before dissection, aliquot defrosted in 4° C. Add BSA then warmed to room temperature (23° C.) before dissection.
0.1% BSA: 0.1 g BSA fraction V (Sigma#A-9647) in 10 mL distilled H2O, Stored at 4° C.
Developmental Hormone: 1 mg 20-hydroxyecdysone (Sigma #H-5142) in 1 mL 100% Ethanol. Stored at −25° C. Before use, stock is diluted 10× (1 mL added to 9 mL of 100% Ethanol). 10 μL of diluted 20-hydroxyecdysone is added to culture.
Dissection Procedures: Third instar larvae are removed from cultivation bottle with a wetted brush and washed in dH2O to remove food medium clinging to larvae. The cleaned larvae are dissected in Ringer's Medium using forceps. The imaginal discs are washed in fresh Ringer's Medium, and then cultivated with 1 mL of Robb's Medium in 12-well culture plate. Each culture well should have 30˜40 imaginal discs.
Culturing Procedures: In a larger container, place the 12-well culture plate on a moist towel, then seal the large container. Cultivate at 25° C. for 15 hours. Evaluation: Three categories will be used to grade the eversion of each imaginal disc. Full Eversion—the leg is fully extended from the disc. Partial Eversion—the leg is protruding from the epithelial. No Eversion—no sign of any protrusion.

[2] = test system: polyamine transporter (PAT); assay: Ki for inhibition of [14C]spermidine uptake in L1210 cells; type: cell-based, mouse
Excerpt: In terms of Table 1, L1210 cells are mouse leukemia cells and are the gold standard in terms of evaluating polyamine cytotoxicity data due to a plethora of prior data in this cell line for other polyamine structures. Clearly 7a was similar in all respects to 4a (Table 1). […] The lower the Ki value, the higher the affinity of the drug for the polyamine transporter (PAT) on the cell surface. Chinese hamster ovary (CHO) cells and a mutant line without an active PAT (CHO-MG) also evaluated the PAT selectivity of these drugs.
L1210 IC50 and Ki studies. […] The Ki values in Table 3 were determined for [^14C]spermidine uptake and reflect the affinity of the polyamine derivative for the polyamine transporter on the cell surface. With both parameters, one can determine whether high affinity for the transporter (e.g., low Ki value) translated into high cytotoxicity (e.g., low IC50 value), etc.
Ki procedure. The ability of the conjugates to interact with the polyamine transport system was determined by measuring competition by the conjugates against radiolabeled spermidine uptake in L1210 cells. Initially, the Km value of spermidine transport was determined as previously described (Clément et al., Biochem. J. 1995, 312, 933-938). The ability of conjugates to compete for [^14C]spermidine uptake were determined in L1210 cells by a 10-min uptake assay in the presence of increasing concentrations of competitor, using 1 μM [^14C]spermidine as substrate. Ki values for inhibition of spermidine uptake were determined using the Cheng-Prusoff equation (Cheng and Prusoff, Biochem. Pharmacol. 1973, 22, 3099-3108) from the IC50 value derived by iterative curve fitting of the sigmoidal equation describing the velocity of spermidine uptake in the presence of the respective competitor (Torossian et al., Biochem. J., 1996, 319, 21-26). L1210 cells were grown and maintained according to established procedures (Bergeron et al., J. Med. Chem. 2000, 43, 224-235) and were washed twice in HBSS prior to the transport assay.

[3] = target: polyamine transporter (PAT); conditions: data originally reported in Ref; read-out: L1210 Ki value; cited from earlier work
CHO cells = conditions: data originally reported in Ref; cited from earlier work

| SMILES | inhibition at 18 µM [1] | Ki ([2]; [14C]spermidine uptake, 10-min, 1 μM substrate, read-out: L1210 Ki values) | Ki [3] | IC50 Ratio (CHO-MG/CHO), a measure of PAT selectivity (CHO cells) | Ki ([2]; new data, read-out: L1210 Ki value) |
| --- | --- | --- | --- | --- | --- |
| NCCCCNCCCCNCc1c2ccccc2cc2ccccc12 [Compound 6b] | 97% | 1800 nM | 1800 nM | 148 | – |
| CCN(CCCNCCCN)Cc1c2ccccc2cc2ccccc12 [Compound 7a, N-(3-Amino-propyl)-N′-anthracen-9-ylmethyl-N′-ethyl-propane-1,3-diamine] | 95% | – | – | – | 23500 nM |
